This note sets out measurements from patent US20250388544A1, “HETEROAROMATIC INHIBITORS OF ASTACIN PROTEINASES” (VIVORYON THERAPEUTICS N.V., priority 2019, published 2025).

Assay type in all cases: biochemical
In experiment [1] the target is T1, hMeprin α (Homo sapiens, UniProt Q16819).
T1 sequence (Q16819 66-746): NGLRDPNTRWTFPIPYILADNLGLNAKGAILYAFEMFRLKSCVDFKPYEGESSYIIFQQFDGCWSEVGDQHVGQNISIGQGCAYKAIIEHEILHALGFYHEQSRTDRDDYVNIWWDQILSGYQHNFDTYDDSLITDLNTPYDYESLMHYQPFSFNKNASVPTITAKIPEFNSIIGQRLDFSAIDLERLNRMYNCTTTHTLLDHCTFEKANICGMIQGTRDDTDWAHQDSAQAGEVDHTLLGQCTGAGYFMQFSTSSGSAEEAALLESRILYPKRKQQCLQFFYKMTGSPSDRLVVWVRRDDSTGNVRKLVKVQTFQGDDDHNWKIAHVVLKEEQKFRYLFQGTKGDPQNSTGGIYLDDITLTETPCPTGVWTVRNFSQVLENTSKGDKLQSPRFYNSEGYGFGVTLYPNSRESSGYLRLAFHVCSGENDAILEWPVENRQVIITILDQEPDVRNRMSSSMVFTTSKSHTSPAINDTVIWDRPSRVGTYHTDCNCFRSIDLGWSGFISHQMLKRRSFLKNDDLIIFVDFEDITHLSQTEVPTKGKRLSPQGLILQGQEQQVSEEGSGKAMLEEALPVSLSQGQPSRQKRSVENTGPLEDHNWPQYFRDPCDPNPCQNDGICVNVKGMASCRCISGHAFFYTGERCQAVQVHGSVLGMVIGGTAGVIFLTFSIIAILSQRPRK
Nature of the experiment: Enzymatic assay, quenched peptide substrate cleavage, method A. To be noted: geometric mean (geometric SD factor in parentheses), read-out: Meprin alpha IC50. The procedure:
(§1) The determination of enzymatic activity was based on the cleavage of internally quenched peptide substrates. A typical assay of 250 μl total volume measured in black 96 well plates consisted of 100 μl buffer, 50 μl enzyme at a final concentration of 5e-8 M to 2e-10 M, 50 μl substrate (0.15 to 80 μM, in buffer, 0.5% DMSO) and 50 μl inhibitor solution (in buffer, 1% DMSO). In case of 125 μl assay volume (black 96 half area well plates) all volumes were cut in half. Enzymatic activity of ADAMs was measured in 384 well plates with 60 μl total assay volume consisting of 20 μl inhibitor, 20 μl buffer, 10 μl enzyme and 10 μl substrate.
(§2) Based on method B Ki^(app) values were determined using Morrison's equation. All measurements were performed using a fluorescence plate reader (FLUOSTAR OPTIMA, BMG Labtech) at 30° C. The kinetic parameters were determined at least in duplicates on separate days. The excitation/emission wavelength was 340/420 nm. The kinetic data was evaluated using GRAFIT software (version 7.0.3, Erithacus Software).

For experiment [2], the target named is T2, hMeprin β (Homo sapiens, UniProt Q16820).
T2 sequence (Q16820 62-701): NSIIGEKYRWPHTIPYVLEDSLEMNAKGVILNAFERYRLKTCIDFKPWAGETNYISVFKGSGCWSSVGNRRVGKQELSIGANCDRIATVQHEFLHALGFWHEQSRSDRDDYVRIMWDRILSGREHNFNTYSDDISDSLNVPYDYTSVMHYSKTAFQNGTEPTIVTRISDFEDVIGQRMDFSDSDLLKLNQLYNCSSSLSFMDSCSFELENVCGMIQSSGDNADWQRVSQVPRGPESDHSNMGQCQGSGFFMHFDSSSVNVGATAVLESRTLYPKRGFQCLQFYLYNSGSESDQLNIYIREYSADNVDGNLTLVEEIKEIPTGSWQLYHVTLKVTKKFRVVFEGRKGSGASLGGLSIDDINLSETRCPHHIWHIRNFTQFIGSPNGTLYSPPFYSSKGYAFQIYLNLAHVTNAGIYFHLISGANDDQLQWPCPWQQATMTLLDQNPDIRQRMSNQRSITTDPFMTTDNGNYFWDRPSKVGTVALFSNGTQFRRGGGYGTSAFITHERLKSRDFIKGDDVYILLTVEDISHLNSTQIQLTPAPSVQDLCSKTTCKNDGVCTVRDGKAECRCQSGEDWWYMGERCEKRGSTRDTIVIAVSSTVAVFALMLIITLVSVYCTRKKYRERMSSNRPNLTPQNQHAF
Described as above. Particulars: geometric mean (geometric SD factor in parentheses), read-out: Meprin beta IC50. The procedure: as §1, §2

Experiment [3] has as its target T1, hMeprin α. As to the kind of experiment: Enzymatic assay, quenched peptide substrate cleavage, method B. To be noted: geometric mean (geometric SD factor in parentheses); for Ki: Morrison's equation, read-out: Meprin alpha Ki(app); for IC50: read-out: Meprin alpha IC50. The gist of the method: (§3)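 Cleavage of internally quenched peptides was read at 340/420 nm and 30° C., with enzyme at 5e-8 to 2e-10 M and substrate at 0.15–80 μM. Inhibitor solutions contained 1% DMSO and substrate 0.5% DMSO. Method B gave Ki(app) values via Morrison's equation, with kinetics measured in at least duplicate on separate days.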

Experiment [4] has as its target T2, hMeprin β. The description is as above. To be noted: geometric mean (geometric SD factor in parentheses); for Ki: Morrison's equation, read-out: Meprin beta Ki(app); for IC50: read-out: Meprin beta IC50. The gist of the method: as §3

As to `O=C(Cc1c(-c2ccc(Cl)c(O)c2F)nc2ccccn12)NO` [Example 28, 2-[2-(4-Chloro-2-fluoro-3-hydroxy-phenyl)imidazo-[1,2-a]pyridin-3-yl]ethanehydroxamic acid], the IC50 stood at 135 nM on hMeprin α [1], 23 nM on hMeprin β [2], 92 nM at hMeprin α [3] and 81 nM at hMeprin β [4]. The Ki at hMeprin α [3] worked out at 90 nM; at hMeprin β [4], 80 nM.
On to `O=C(CCn1c(-c2ccccc2)nc2ccccc21)NO` [Example 14, 3-(2-Phenylbenzimidazol-1-yl)propanehydroxamic acid], for which the IC50 on hMeprin α [1] was 1130 nM; at hMeprin β [2], 28000 nM; at hMeprin α [3], 708 nM; on hMeprin β [4] it was 32400 nM. For the same molecule, the Ki amounted to 701 nM on hMeprin α [3] and 31700 nM on hMeprin β [4].

For orientation: IC50 means the concentration that gives 50% inhibition.
